This note sets out measurements from patent US20250268260A1, “PESTICIDAL COMPOSITIONS INCLUDING AN ISOXAZOLINE COMPOUND” (SYNGENTA CROP PROTECTION AG, priority 2022, published 2025).

Holding throughout (format): in vivo
In data set [1] the test system is Agriotes lineatus. The data set can be described thus: Barley seed treatment, wireworm (Agriotes lineatus) corrected mortality and plant height (Example 3). Conditions: for Plant height in cm / % Increase plant height in comparison to infested control (6DAI) observed: 6DAI; for Plant height in cm: barley, infested control 9.3, not infested control 14.9; for % Corrected mortality (20 DAI) observed: 20 days after infestation, barley seed treatment. As to the method: The products FS400 and NOVODOR 3% FC were diluted with the addition of water to have the dose of active ingredient for 30 seeds plusan overage of 10%. These extra 10% were needed to compensate for losses of active ingredient during the seed treatment process. 30 seeds of barley were placed in a spheric glass beaker, and the application solution was added. The beaker was swung to mix the seeds with the solution. After drying two seeds were sown per pot. 10 replicates per treatment were prepared. 5 days after sowing the pots were infested with 10 wireworms (Agriotes lineatus, approx. 20 mm length). 20 days after infestation (20DAI), the corrected mortality of the wireworms was assessed based on the control treatment. 6 days after infestation (6DAI) the plant height was measured.

The test system of data set [2] is Spodoptera littoralis. The data set can be described thus: Foliar spray on soybean plants, Spodoptera littoralis larvae mortality (Example 1). The conditions noted are these: isocycloseram 0.4 ppm (0.2 g AI/ha), Bt1 45 ppm (22.5 g AI/ha), alone or combined, second instar larvae; for % mortality (3DAA) Observed Results: 3 days after application; for % mortality (5DAA) Observed Results: 5 days after application. As to the method:
The products VIRANTRA SC400 and COSTAR WG 18 are diluted with the addition of water to obtain the concentrations of active ingredients gathered in Table 1 and Table 2, and were applied on soybean plants (planted in pots; ˜8 plants per pot, 5 pots per treatment), in using a turn table application machine (500 l/ha). After drying 10 soybean plants were cut and placed in a petri dish (diameter: 14.5 cm) containing 3 wet filter papers (4 ml water); 3 replicates per concentration were done. Plants were infested with 10 Spodoptera littoralis larvae (second instar of larvae) and petri dish was covered with a round cotton tissue and closed with a plastic lid. Three and five days after application mortality was assessed.

Data set [3] has as its system Diabrotica balteata. The data set can be described thus: Corn seed treatment, Diabrotica balteata larvae mortality and plant damage (Example 2). The conditions noted are these: 6 days after infestation, alone or combined. As to the method: The products FS400 and NOVODOR 3% FC were diluted with the addition of water to have the dose of active ingredient for 30 seeds plus an overage of 10%. These extra 10% were needed to compensate for losses of active ingredient during the seed treatment process. 30 seeds of corn were placed in a spheric glass beaker, and the application solution was added. The beaker was swung to mix the seeds with the solution. After drying, four seeds were sown per pot. 5 replicates per treatment were prepared. 14 days after sowing the pots were infested with 5 second instar larvae of Diabrotica balteata. 6 days after infestation (6DAI) the mortality of larvae and the damage on the plants was assessed.

[4] abbreviates: isocycloseram 0.25 μg/seed (6 g/100 kg seed), alone or + Bt2 5 μg/seed.
The mark [5] stands for this setting: isocycloseram 1.25 μg/seed (24 g/100 kg seed), alone or + Bt2 5 μg/seed.
The mark [6] stands for this setting: isocycloseram 0.01 mg/seed (3 g/100 kg seeds), Bt2 0.03 mg/seed (10 g/100 kg seeds).
Where [7] appears, read: isocycloseram 0.03 mg/seed (10 g/100 kg seeds), Bt2 0.1 mg/seed (30 g/100 kg seeds).
Setting [8] is: Bt2 alone 5 μg/seed (120 g/100 kg seed).

As for `CCN1OCC(NC(=O)c2ccc(C3=NOC(c4cc(Cl)c(F)c(Cl)c4)(C(F)(F)F)C3)cc2C)C1=O` (stereo not drawn) [isocycloseram], in data set [1] (setting [4]), the “Plant height in cm” value is recorded as 10.2 cm and the “% Increase plant height in comparison to infested control (6DAI) observed” value (from here on “% Increase plant height in comparison”) came to 10%. In data set [1] (setting [5]), the “Plant height in cm” value came to 10.6 cm and the “% Increase plant height in comparison” value came out at 14%. In addition, in data set [1] (isocycloseram 0.25 μg/seed (6 g/100 kg seed), alone or + Bt2 5 μg/seed (120 g/100 kg seed)), the “% Corrected mortality (20 DAI) observed” value came to 17%. Moreover, the “% Corrected mortality (20 DAI) observed” value in data set [1] (isocycloseram 1.25 μg/seed (24 g/100 kg seed), alone or + Bt2 5 μg/seed (120 g/100 kg seed)) is 25%. For the same compound, in data set [2], the “% mortality (3DAA) Observed Results” value is 0% and the “% mortality (5DAA) Observed Results” value came to 7%. In data set [3] (setting [6]), the “% Mortality (6DAI) observed” value came to 33% and the “% Plant damage reduction (6DAI) observed” value came out at 33%. Further, in data set [3] (setting [7]), the “% Mortality (6DAI) observed” value was 58% and the “% Plant damage reduction (6DAI) observed” value is on record as 50%.
For “Bacillus thuringiensis var. kurstaki strain SA-12 [Bt1]”, in data set [2], the “% mortality (3DAA) Observed Results” value turned out to be 20% and the “% mortality (5DAA) Observed Results” value was found to be 30%.
Consider “Bacillus thuringiensis var. tenebrionis strain NB-176 [Bt2]”, for which, in data set [1] (setting [8]), the “% Increase plant height in comparison” value was 0%, the “Plant height in cm” value is 9 cm and the “% Corrected mortality (20 DAI) observed” value is given as 0%. For the same compound, in data set [3] (setting [6]), the “% Mortality (6DAI) observed” value came out at 0% and the “% Plant damage reduction (6DAI) observed” value is −6%. Moreover, in data set [3] (setting [7]), the “% Mortality (6DAI) observed” value was 0% and the “% Plant damage reduction (6DAI) observed” value worked out at 11%.
